In test [1] the test system is Staphylococcus aureus. Put plainly: Antibacterial activity against Methicillin-resistant Staphylococcus aureus ATCC 33591 assessed as bacterial growth inhibition incubated for 20 to 24 hrs by microbroth serial dilution assay. Type of test: functional. The conditions noted are these: time 20-24 hrs.
In test [2] the test system is Staphylococcus aureus. Kind of test: Antibacterial activity against Methicillin-resistant Staphylococcus aureus ATCC 43300 assessed as bacterial growth inhibition incubated for 20 to 24 hrs by microbroth serial dilution assay. Type of test: functional. The conditions noted are these: time 20-24 hrs. Background: Broth dilution looks for growth in wells or tubes with falling amounts of substance.

The subject of test [3] is Staphylococcus epidermidis. Put plainly: Antibacterial activity against Methicillin-resistant Staphylococcus epidermidis ATCC 51625 assessed as bacterial growth inhibition incubated for 20 to 24 hrs by microbroth serial dilution assay. The test is classed as functional. The following applies: time 20-24 hrs.
The subject of test [4] is Staphylococcus epidermidis. Kind of test: Antibacterial activity against Methicillin-sensitive Staphylococcus epidermidis ATCC 12228 assessed as bacterial growth inhibition incubated for 20 to 24 hrs by microbroth serial dilution assay. The conditions noted are these: time 20-24 hrs. Type of test: functional.
Test [5] deals with Staphylococcus aureus. Put plainly: Antibacterial activity against Staphylococcus aureus ATCC 25923 assessed as bacterial growth inhibition incubated for 20 to 24 hrs by microbroth serial dilution assay. Type of test: functional. The conditions noted are these: time 20-24 hrs.
Test [6] concerns Staphylococcus epidermidis. Kind of test: Selectivity ratio of MBC for antibacterial activity against Methicillin-sensitive Staphylococcus epidermidis […] to MIC for antibacterial activity against Methicillin-sensitive Staphylococcus epidermidis […]. Type of test: functional.
The subject of test [7] is Staphylococcus aureus. Kind of test: Selectivity ratio of MBC for antibacterial activity against Staphylococcus aureus to MIC for antibacterial activity against Staphylococcus aureus. The test is classed as functional.
In test [8] the test system is Staphylococcus aureus. Kind of test: Antibacterial activity against Methicillin-sensitive Staphylococcus aureus ATCC 29213 assessed as bacterial growth inhibition incubated for 20 to 24 hrs by microbroth serial dilution assay.
The test system of test [9] is Staphylococcus aureus. Kind of test: Selectivity ratio of MBC for antibacterial activity against Methicillin-sensitive Staphylococcus aureus ATCC 29213 to MIC for antibacterial activity against Methicillin-sensitive Staphylococcus aureus ATCC 29213.

≈ marks a conversion by molar mass, not a printed value.

With `C=C[C@]1(C)C[C@@H](OC(=O)CSc2nc(NC(=O)CN3CCCCC3)nc3[nH]cnc23)[C@@]2(C)C3C(=O)CC[C@@]3(CC[C@H]2C)[C@@H](C)[C@@H]1O` (some centres undefined), the MIC in the test with Staphylococcus aureus [1] came to 0.125 µg/mL (≈ 0.191 µM); in the test on Staphylococcus aureus [2], 0.125 µg/mL (≈ 0.191 µM); in test [3], 0.5 µg/mL (≈ 0.766 µM); in test [4], 0.5 µg/mL (≈ 0.766 µM); in the test on Staphylococcus aureus [5] it was 0.0625 µg/mL (≈ 0.0957 µM); with Staphylococcus aureus [8] it was 0.25 µg/mL (≈ 0.383 µM). Besides, the Ratio (in test [6]; in the test on Staphylococcus aureus [7]) was more than 4 each time.

As for `C=C[C@]1(C)C[C@@H](OC(=O)CSc2nc(N)nc3c2ncn3C(=O)OC)[C@@]2(C)C3C(=O)CC[C@@]3(CC[C@H]2C)[C@@H](C)[C@@H]1O` (some centres undefined), the MIC in the test on Staphylococcus aureus [1] turned out to be 0.125 µg/mL (≈ 0.213 µM); in the test on Staphylococcus aureus [2] it was 0.125 µg/mL (≈ 0.213 µM); in test [3] it was 0.125 µg/mL (≈ 0.213 µM); in test [4], 0.0625 µg/mL (≈ 0.107 µM); in the test with Staphylococcus aureus [5] it was 0.125 µg/mL (≈ 0.213 µM); in the test with Staphylococcus aureus [8] it was 0.5 µg/mL (≈ 0.854 µM). In addition, the Ratio (in test [6]; in the test on Staphylococcus aureus [7]) was more than 4 throughout.

Turning to `C=C[C@]1(C)C[C@@H](OC(=O)CSc2nc(N)nc3c2ncn3C(=O)Nc2ccccc2Cl)[C@@]2(C)C3C(=O)CC[C@@]3(CC[C@H]2C)[C@@H](C)[C@@H]1O` (some centres undefined), the MIC in the test on Staphylococcus aureus [1] stood at 0.125 µg/mL (≈ 0.183 µM); with Staphylococcus aureus [2], 0.125 µg/mL (≈ 0.183 µM); in [3], 0.0625 µg/mL (≈ 0.0917 µM); in test [4], 0.0078 µg/mL (≈ 0.0114 µM); with Staphylococcus aureus [5], 0.125 µg/mL (≈ 0.183 µM); in the test on Staphylococcus aureus [8], 0.25 µg/mL (≈ 0.367 µM). Besides, the Ratio in test [6] is given as more than 4; in the test on Staphylococcus aureus [7], more than 4; in the test on Staphylococcus aureus [9] it was 4.

Take `C=C[C@]1(C)C[C@@H](OC(=O)CSc2nc(N)nc3c2ncn3C(=O)Nc2ccccc2OC)[C@@]2(C)C3C(=O)CC[C@@]3(CC[C@H]2C)[C@@H](C)[C@@H]1O` (some centres undefined): the MIC in the test with Staphylococcus aureus [1] came out at 0.125 µg/mL (≈ 0.185 µM); with Staphylococcus aureus [2], 0.25 µg/mL (≈ 0.369 µM); in [3], 0.125 µg/mL (≈ 0.185 µM); in [4] it was 0.0156 µg/mL (≈ 0.023 µM); in the test on Staphylococcus aureus [5] it was 0.25 µg/mL (≈ 0.369 µM); with Staphylococcus aureus [8], 0.125 µg/mL (≈ 0.185 µM). Further, the Ratio was more than 4 in [6], more than 4 in the test on Staphylococcus aureus [7] and 2 with Staphylococcus aureus [9].

As for `C=C[C@]1(C)C[C@@H](OC(=O)CSc2nc(NC(=O)CN3CCNCC3)nc3[nH]cnc23)[C@@]2(C)C3C(=O)CC[C@@]3(CC[C@H]2C)[C@@H](C)[C@@H]1O` (some centres undefined), the MIC in the test on Staphylococcus aureus [1] came out at 32 µg/mL (≈ 48.9 µM); in the test on Staphylococcus aureus [2] it was 64 µg/mL (≈ 97.9 µM); in test [3], 16 µg/mL (≈ 24.5 µM); in [4] it was 4 µg/mL (≈ 6.12 µM); in the test on Staphylococcus aureus [5], 32 µg/mL (≈ 48.9 µM); with Staphylococcus aureus [8] it was 32 µg/mL (≈ 48.9 µM). The Ratio (in [6]; in the test with Staphylococcus aureus [7]) was more than 4 in each case.

For the compound `C=C[C@]1(C)C[C@@H](OC(=O)CSc2nc(NC(=O)CN3CCN(C)CC3)nc3[nH]cnc23)[C@@]2(C)C3C(=O)CC[C@@]3(CC[C@H]2C)[C@@H](C)[C@@H]1O` (some centres undefined), the MIC in the test on Staphylococcus aureus [1] was 16 µg/mL (≈ 24 µM); in the test on Staphylococcus aureus [2] it was 32 µg/mL (≈ 47.9 µM); in [3], 1 µg/mL (≈ 1.5 µM); in [4] it was 4 µg/mL (≈ 5.99 µM); in the test on Staphylococcus aureus [5], 16 µg/mL (≈ 24 µM); in the test on Staphylococcus aureus [8], 8 µg/mL (≈ 12 µM). Further, the Ratio in test [6] is more than 4; with Staphylococcus aureus [7], more than 4; in the test with Staphylococcus aureus [9], 4.

For the compound `C=C[C@]1(C)C[C@@H](OC(=O)CSc2nc(NC(=O)CNC3CCOCC3)nc3[nH]cnc23)[C@@]2(C)C3C(=O)CC[C@@]3(CC[C@H]2C)[C@@H](C)[C@@H]1O` (some centres undefined), the MIC in the test with Staphylococcus aureus [1] came to 0.5 µg/mL (≈ 0.748 µM); with Staphylococcus aureus [2], 16 µg/mL (≈ 23.9 µM); in test [3], 1 µg/mL (≈ 1.5 µM); in test [4], 2 µg/mL (≈ 2.99 µM); in the test on Staphylococcus aureus [5], 0.5 µg/mL (≈ 0.748 µM); in the test on Staphylococcus aureus [8], 8 µg/mL (≈ 12 µM). For the same compound, the Ratio (in test [6]; in the test on Staphylococcus aureus [7]) was more than 4 each time.

Take `C=C[C@]1(C)C[C@@H](OC(=O)CSc2nc(N)nc3c2ncn3C(=O)NCc2ccc(C)cc2)[C@@]2(C)C3C(=O)CC[C@@]3(CC[C@H]2C)[C@@H](C)[C@@H]1O` (some centres undefined): the MIC with Staphylococcus aureus [1] is 0.0625 µg/mL (≈ 0.0926 µM); in the test on Staphylococcus aureus [2] it was 0.0625 µg/mL (≈ 0.0926 µM); in test [3], 0.0625 µg/mL (≈ 0.0926 µM); in [4] it was less than 0.0312 µg/mL; in the test on Staphylococcus aureus [5], 0.125 µg/mL (≈ 0.185 µM); with Staphylococcus aureus [8], 0.125 µg/mL (≈ 0.185 µM). For the same compound, the Ratio is more than 4 in [6], more than 4 in the test with Staphylococcus aureus [7] and 4 in the test on Staphylococcus aureus [9].

Turning to `C=C[C@]1(C)C[C@@H](OC(=O)CSc2nc(NC(=O)CCl)nc3[nH]cnc23)[C@@]2(C)C3C(=O)CC[C@@]3(CC[C@H]2C)[C@@H](C)[C@@H]1O` (some centres undefined), the MIC turned out to be 0.5 µg/mL (≈ 0.828 µM) in the test on Staphylococcus aureus [1]; 0.5 µg/mL (≈ 0.828 µM) in the test on Staphylococcus aureus [2]; 0.25 µg/mL (≈ 0.414 µM) in test [3]; 0.0156 µg/mL (≈ 0.0258 µM) in test [4]; 0.5 µg/mL (≈ 0.828 µM) in the test with Staphylococcus aureus [5]; 0.5 µg/mL (≈ 0.828 µM) with Staphylococcus aureus [8]. For the same compound, the Ratio (in test [6]; in the test on Staphylococcus aureus [7]) was more than 4 throughout.

`C=C[C@]1(C)C[C@@H](OC(=O)CSc2nc(N)nc3c2ncn3C(=O)NCc2ccccc2)[C@@]2(C)C3C(=O)CC[C@@]3(CC[C@H]2C)[C@@H](C)[C@@H]1O` (some centres undefined): the MIC is 0.0312 µg/mL (≈ 0.0473 µM) in the test with Staphylococcus aureus [1]; 0.0625 µg/mL (≈ 0.0946 µM) with Staphylococcus aureus [2]; 0.0625 µg/mL (≈ 0.0946 µM) in test [3]; less than 0.0078 µg/mL in [4]; 0.0312 µg/mL (≈ 0.0473 µM) in the test with Staphylococcus aureus [5]; 0.0625 µg/mL (≈ 0.0946 µM) in the test on Staphylococcus aureus [8]. Besides, the Ratio (in test [6]; in the test with Staphylococcus aureus [7]) was more than 4 each time.

By MIC is commonly meant the lowest concentration found to suppress growth.
